Structures can show the parent of a compound that is named as a salt. Where two headings read alike, the source gives them in different places.

These results are taken from US6207683A, “Benzocycloheptathiophene compounds” (Bridge Pharma, Inc., priority 1999, dated 2001).

Data set [1] has as its target T1, histamine H1 -receptors (membranes from bovine cerebellum) (Bos taurus, UniProt P30546).
T1 construct: membranes from bovine cerebellum; from tissue; host or cells: bovine cerebellum membranes
The data set is described as follows: [^3 H]pyrilamine binding assay, histamine H1-receptors. As for the experimental part:
1. Binding to histaminergic receptors
The affinities of the test compounds for histamine H1 -receptors were assessed using the [^3 H]pyrilamine binding assay, modified after Chang et al. Heterogeneity of Histamine H1 -Receptors. J. Neurochem. 1979, 32: 1653-1663 Briefly, membranes from bovine cerebellum were incubated with [^3 H]pyrilamine and the test compound at increasing concentrations. The specific binding of the radioactive ligand to the receptor was defined as the difference between total binding and nonspecific binding, determined in the presence of an excess of unlabelled ligand. IC50 values (concentration required to inhibit 50% of specific binding of [^3 H]pyrilamine) were determined by non linear regression analysis of the competition curves.

Data set [2] addresses T2, muscarinic M1 -receptors (bovine striatal membranes) (Bos taurus, UniProt F1N5C5).
T2 sequence (F1N5C5 1-460): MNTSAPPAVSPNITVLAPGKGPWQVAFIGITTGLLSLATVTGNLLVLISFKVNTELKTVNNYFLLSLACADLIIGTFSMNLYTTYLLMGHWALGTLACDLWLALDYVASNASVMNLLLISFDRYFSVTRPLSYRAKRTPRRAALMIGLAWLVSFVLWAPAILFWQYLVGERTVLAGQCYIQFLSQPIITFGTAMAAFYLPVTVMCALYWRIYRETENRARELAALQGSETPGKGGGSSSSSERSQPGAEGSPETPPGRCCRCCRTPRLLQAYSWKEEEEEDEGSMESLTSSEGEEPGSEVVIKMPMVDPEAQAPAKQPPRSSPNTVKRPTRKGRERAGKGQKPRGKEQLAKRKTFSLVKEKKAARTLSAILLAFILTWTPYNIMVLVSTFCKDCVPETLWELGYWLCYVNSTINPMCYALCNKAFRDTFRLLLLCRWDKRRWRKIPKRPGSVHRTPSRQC
Briefly: biochemical. The class given is binding. As for the experimental part: 2. Binding to muscarinic receptors
The affinities of the test compounds for muscarinic M1 -receptors were assessed using the [^3 H]pirenzepine binding assay, modified after Luthin et al. [^3 H]Pirenzepine and [^3 H]QNB binding to brain muscarinic cholinergic receptors. Molec. Pharmac. 1984, 26: 164-169. Briefly, the experiments were carried out on bovine striatal membranes expressing muscarinic M1 -receptors. After incubation with the test article and the proper radioligand and washing, bound radioactivity is determined with a […], using a commercial scintillation cocktail. The specific radioligand binding to each receptor is defined as the difference between total binding and nonspecific binding determined in the presence of an excess of unlabelled ligand. IC50 values (concentrations required to inhibit 50% of specific binding) were determined by non linear regression analysis of the competition curves.

Data set [3] has as its system physostigmine-induced lethality. The data set is described as follows: Physostigmine-induced lethality test (sedative effects). The class given is in vivo. The following applies: survivors of 10 mice 30 min after physostigmine 1.9 mg/kg s.c.; oral treatment 60 min before, mg/kg: Ketotifen 107, Nor-ketotifen 83, Example 2 94, Example 5 108, Astemizole 115. As for the experimental part: 3. Studies on sedative effects
The physostigmine-induced lethality test used in these tests is a modification of the sedation test technique reported by COLLIER et al., in Br. J. Pharmac., 1968, 32: 295-310. In short, physostigmine (1.9 mg/kg s.c.) produces 100% lethality when given to grouped mice with 10 animals in each plastic cage (approx. 11×26×13 cm). Mice administered a sedating antihistamine prior to physostigmine are protected and survive. In the present study, test compounds were administered orally 60 minutes prior to physostigmine. The number of survivors were counted 30 minutes after physostigmine administration. The doses in the CNS test were half of the molecular weights of the test compounds, expressed in mg/kg body weight.

Data set [4] in a line: Sedative activity (general statement). The class given is in vivo. Particulars: statement in words.
The mark [5] stands for this setting: inhibition of 50% of specific binding of [^3 H]pyrilamine, bovine cerebellum membranes, read-out: IC50.
Setting [6] is: inhibition of 50% of specific [^3 H]pirenzepine binding, bovine striatal membranes, read-out: IC50.

T1 sequence (P30546 whole entry): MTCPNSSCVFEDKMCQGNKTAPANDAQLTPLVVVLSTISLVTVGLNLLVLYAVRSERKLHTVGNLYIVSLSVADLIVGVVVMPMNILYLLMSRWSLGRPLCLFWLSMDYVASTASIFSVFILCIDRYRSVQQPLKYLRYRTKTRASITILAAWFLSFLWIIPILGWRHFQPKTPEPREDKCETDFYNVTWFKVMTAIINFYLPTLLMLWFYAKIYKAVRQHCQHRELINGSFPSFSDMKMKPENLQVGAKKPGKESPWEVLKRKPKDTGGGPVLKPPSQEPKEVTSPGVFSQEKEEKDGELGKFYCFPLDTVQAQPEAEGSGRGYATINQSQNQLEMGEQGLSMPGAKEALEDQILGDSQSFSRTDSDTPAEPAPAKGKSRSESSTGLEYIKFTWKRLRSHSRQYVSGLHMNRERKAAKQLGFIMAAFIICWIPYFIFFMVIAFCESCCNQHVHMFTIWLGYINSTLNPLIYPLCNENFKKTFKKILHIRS

In general, IC50 refers to the concentration at which inhibition is half-maximal. For `OC1Cc2ccccc2C(=C2CCNCC2)c2ccsc21` (stereo not drawn) [10-OH-NORKETOTIFEN, 10-OH-norketotifen], the IC50 in data set [1] (setting [5]) was 113 nM.
In turn, `CN1[C@@H]2CC[C@H]1C[C@@H](OC(=O)C(CO)c1ccccc1)C2` (stereo partly drawn) [ATROPINE Sulfate] returned an IC50 in data set [2] of 0.574 nM.
With `COc1ccc(CCN2CCC(Nc3nc4ccccc4n3Cc3ccc(F)cc3)CC2)cc1` [Astemizole], the Survived in data set [3] is listed as 1/10.
For the compound `O=C1Cc2ccccc2C(=C2CCN(CCO)CC2)c2ccsc21` [Example 2], the results for the IC50 in data set [1] (setting [5]) and in data set [2] (setting [6]) were 5.85 nM and 235 nM, respectively. Further, the Survived in data set [3] is 3/10.
Take `O=C(O)COCCN1CCC(=C2c3ccccc3CC(=O)c3sccc32)CC1` [Example 5]: the IC50 stood at 69.5 nM in data set [1] (setting [5]) and 880 nM in data set [2] (setting [6]). For the same compound, in data set [3], the Survived is 0/10.
On to `CN1CCC(=C2c3ccccc3CC(=O)c3sccc32)CC1` [Ketotifen, ketotifen], for which the “sedative activity / sedative side effects” value in data set [4] is “profound sedative side effects”. For the same compound, in data set [3], the Survived is recorded as 9/10.
For `O=C1Cc2ccccc2C(=C2CCNCC2)c2ccsc21` [Norketotifen, 4-(4-piperidylidene)-9,10-dihydro-4 H-benzo[4,5]cyclo-hepta[1,2-] thiophene-10-one], the IC50 in data set [1] came to 43.6 nM; in data set [2] (setting [6]), 261 nM. The Survived in data set [3] is given as 3/10.
Turning to `Cc1ccc(/C(=C\CN2CCCC2)c2ccccn2)cc1` [TRIPROLIDINE HCl], the IC50 in data set [1] (setting [5]) came out at 14.1 nM.
